Experimental data reported in US6232340A, “Vanadium complexes and derivatives thereof and methods related thereto” (priority 1998, dated 2001).
Entries after “also recorded” stand apart in the source; their conditions may differ.

How the values were obtained:
stromelysin = experiment: Northern blot, synovial stromelysin expression in CIA rats; assay type: in vivo; conditions: vs control group
Description: (§1) Collagenase, stromelysin, and IL-1 mRNA were readily detected in the vehicle control group. When normalized for RNA loading, expression of all three genes was decreased in the animals in the BMOV-treated group compared to the control group.

collagenase = experiment: Northern blot, synovial collagenase expression in CIA rats; assay type: in vivo; conditions: vs control group
Description: as §1

IL-1 = experiment: Northern blot, synovial IL-1 expression in CIA rats; assay type: in vivo; conditions: vs control group
Description: as §1

[1] = test system: Collagen Induced Arthritis; experiment: Treatment of collagen induced arthritis (CIA) with BMOV and NAC; assay type: in vivo, rats
Protocol: CIA in rats is a model of chronic inflammatory synovitis with pannus formation, neovascularization, and joint destruction similar to rheumatoid arthritis (RA). After immunization with native collagen type II (CII) in incomplete Freund's adjuvant, 90-100% of genetically susceptible rats reliably develop clinical arthritis within 10 to 14 days.
Arthritis is induced in syngeneic 8 week old female Louvain (LOU) rats by intradermal immunization under ether anaesthesia on Day 0 with 0.5 mg native chick collagen II (CII) (Genzyme, Boston, Mass.) solubilized in 0.1M acetic acid and emulsified in incomplete Freund's adjuvant (IFA) (Difco, Detr, Mich.) (D. E. Trentham et al., J. Exp. Med. 146:857-868, 1977). Onset of clinical arthritis typically develops in 90-100% of control rats 10-12 days post CII immunization.
On day 10 post immunization, arthritis-induced rats are randomized into two groups. Control rats (n=10) receive only an aqueous vehicle at a dose of 100 mg/kg/day s.c. The experimental group (n=10) receives an aqueous vehicle at 100 mg/kg/day s.c., as well as O[BEOV]2 subcutaneously at the appropriate dose.
The severity of clinical arthritis in each limb is scored daily based on an objective integer scale of 0-4 (D. E. Trentham et al., J. Exp. Med. 146:857-868, 1977). A score of 0 indicates an unaffected limb, while a score of 4 represents fulminant erythema and edema involving distal digits. The arthritic index is defined as the sum of its four limb scores. Since CIA typically involves only the hind limbs, an arthritic index of 6 to 8 is considered to represent severe arthritis.
At the end of the study (Day 18-post arthritis onset), hind limb radiographs are obtained. An investigator blinded to the treatment protocol assigns a score to each limb, based on the degree of soft tissue swelling, joint space narrowing, periosteal new bone information, and the presence of erosions and ankylosis (0=normal; 3=maximal joint destruction). The radiographic index is defined as the sum of the limbs.
The humoral immunity is evaluated by collecting rat serum on Day 18 post arthritis onset for measuring anti-CII IgG by an enzyme linked immunosorbent assay (ELISA) (E. Brahn and D. E. Trentham, Cell Immunol. 86:421-428, 1984; E. Brahn and D. E. Trentham, Cell Immunol. 118:491-503, 1989). Antibody titers are normalized against a previously standardised curve and absorbance read at 490 nm at a serum dilution of 1:2500.
Synovium is selected from rats on Day 5 and Day 18-post arthritis onset to study joint morphology using electron microscopy. On Day 18-post arthritis onset, one ankle joint of each arthritic control and O[BEOV]2 -treated rat is removed, critical point dried, and gold sputter-coated for scanning electron microscopy to examine the trochlear surfaces. Conventional transmission electron microscopy is also performed on the articular cartilage of the trochlear surfaces of native, arthritic control, and O[BEOV]2 -treated animals.

MDAY-D2 tumors = experiment: Tumor efficacy on MDAY-D2 tumors in DBA-2 mice (Example 36); assay type: in vivo, murine tumor cells in DBA-2 mice
Protocol: The protocol used is as follows. 10 DBA-2 mice were randomly divided into 2 groups. Groups were treated as follows. […] Vehicle (isotonic phosphate buffer) was filtered through 0.22 μm sterile filter (Costar 140666).
(§2) The groups were as follows:
(§3) 1) Vehicle control: isotonic phosphate buffer. 300 μl/dose, total of 600 μl/day.
(§4) Treatment continued for a total of nine days. Mice were terminated on day 10 with carbon dioxide. Tumors were removed and weighed following blotting.

[2] = Maximum Tolerated Dose study, i.v. b.i.d. for nine days in DBA-2 mice (Example 34); assay type: in vivo, female mice (DBA-2)
Protocol: A Maximum Tolerated Dose (M.T.D.) study was undertaken to determine a safe tolerable dose for administration of OHBEOV through an intravenous route of administration delivered twice daily for nine days in female mice (DBA-2). The protocol was as follows. 8 DBA-2 female mice were randomly divided into groups of 2 for a total of 4 groups. Groups were treated as follows. Vehicle (sterile isotonic phosphate buffer, pH 7.2) was filtered through 0.22 μm sterile filter (Costar 140666).
(§5) 1) Vehicle control: 300 μl/dose for a total of 600 μl/day.
(§6) Mice were weighed as a group (N=2) prior to injection in the morning. […] Treatment continued for a total of nine days. Groups were observed and weighed daily for 2 weeks following the final treatment and observed for behavioral signs of toxicity, i.e., reduced preening, and mobility and organ failure, i.e., weight loss, death. Following this period, mice were terminated with carbon dioxide. Liver, spleen and kidney (and other organs) weighed and kept for histology if appearance appeared abnormal.

[3] = Maximum Tolerated Dose study, s.c. b.i.d. for nine days in DBA-2 mice (Example 33); assay type: in vivo, female mice (DBA-2)
Protocol: A Maximum Tolerated Dose (M.T.D.) study was undertaken to determine a safe tolerable dose for administration of OHBEOV through a parenteral (s.c.) route of administration delivered twice daily (b.i.d.) for nine days in female mice (DBA-2). The protocol was as follows. 14 DBA-2 mice were randomly divided into groups of 2 for a total of 7 groups. Groups were treated as follows. Vehicle (sterile isotonic phosphate buffer, pH 7.2) was filtered through 0.22 pm sterile filter (Costar 140666). OHBEOV was dissolved with gentle heating and stirring for about 20 min.
as §5
7) 300 μl of 2 mg/mL OHBEOV to be injected for a total of 1200 μg/day.
as §6, with “toxicity i.e.” for “toxicity, i.e.,”, “organs) were” for “organs)”

[4] = Plasma glucose levels following acute and b.i.d. dosing (insulin mimetic effect); assay type: in vivo
[5] = test system: H460 human non-small cell lung cancer
Protocol: The purpose was to establish safe efficacious levels of s.c., b.i.d. administration of OHBEOV for 9 days. The protocol used is as follows. 20 female Scid/Rag-2 mice were randomly divided into 4 groups. Groups were treated as follows. H460 tumor cells were inoculated (50 μl 10^6 cells bilaterally in the posterior dorsal region) as discussed earlier. On day 11 following tumor inoculation, the 9 day treatment began. Vehicle (isotonic phosphate buffer) filtered through 0.22 μm sterile filter (Costar 14066).
Mice were weighed as a group prior to injection in the morning. Injections were s.c. in the neck region distal to the tumor sight and were delivered b.i.d. between 8-9 a.m. and between 4-5 p.m. Tumor volumes were estimated on a daily basis from measurements taken with calipers.

[6] = isotonic phosphate buffered saline
[7] = test system: H460 (human non-small cell lung cancer); experiment: Efficacy on H460 human non-small cell lung cancer xenograft in SCID-RAG-2 mice (Example 37); assay type: in vivo, human tumor cells in SCID-RAG-2 female mice; conditions: for tumor size reduction (caliper volumes) / reduction of tumor weight relative to control: 500 μg/dose s.c. b.i.d., 9 days; for tumor size reduction (caliper volumes): vs control; for reduction of tumor weight relative to control: day 10
Protocol: A study was undertaken to confirm the efficacy of OHBEOV and O[BEOV]2 using SCID-RAG-2 female mice with implanted human H460 tumors (lung cancer). […] The protocol used was as follows. 15 SKID-RAG-2 mice were randomly divided into 3 groups. Groups were treated as follows. […] Vehicle (isotonic phosphate buffer) was filtered through 0.22 pm sterile filter (Costar 140666).
as §2, §3, §4

[8] = test system: drug resistant cell lines; conditions: previous studies; cited from earlier work
non-proliferating cells = conditions: previous studies; cited from earlier work
synoviocytes = conditions: previously shown; cited from earlier work
proliferating cells = conditions: previous studies; cited from earlier work
[9] = xenograft model of human lung cancer

Q: With Cc1occc(=O)c1[O-].Cc1occc(=O)c1[O-].[O]=[V+2] [BMOV, Bis(maltolato)oxovanadium(IV)] as the compound, how does the “inhibition of stromelysin gene expression” value (stromelysin; normalized for RNA loading) read?
A: 58%

Q: What about the “synovial expression of stromelysin” value (stromelysin) of the same compound?
A: reduced

Q: And the “inhibition of collagenase gene expression” value (collagenase; normalized for RNA loading)?
A: 78%

Q: And the “synovial expression of collagenase” value (collagenase)?
A: reduced

Q: What about the “inhibition of IL-1 gene expression” value (IL-1; printed "IL-In", normalized for RNA loading) of the same compound?
A: 85%

Q: What about the “synovial expression of IL-1” value (IL-1) of the same compound?
A: to a lesser degree, IL-1, were reduced

Q: And the diarrhoea ([1]; 10 mg/kg/day)?
A: not observed

Q: What about the diarrhoea ([1]; 15 mg/kg/day on Day 11 post arthritis onset) of the same compound?
A: minor diarrhoea

Q: What about the “cartilage damage (scanning and transmission electron micrographs)” value ([1]; joints vs control) of the same compound?
A: little cartilage damage and intact cartilage

Q: And the “trochlear surface of articular cartilage” value ([1]; vs control rats)?
A: normal trochlear surface

Q: And the “articular cartilage ultrastructure (transmission electron micrographs)” value ([1]; vs native animal)?
A: indistinguishable from the native animal

Q: Which arthritis severity ([1]; NAC alone) does the source give for CC(=O)N[C@@H](CS)C(=O)O [NAC] here?
A: developed severe arthritis; also recorded: no appreciable effect on the clinical severity of CIA

Q: With CCc1occc(=O)c1[O][V](=[O])([OH])[O]c1c(CC)occc1=O [OHBEOV, Bis(2-ethyl-3-hydroxy-4-pyronato)hydroxyoxovanadium(V)] as the compound, how does the “tumor size reduction (caliper volumes)” value (MDAY-D2 tumors; 500 μg/dose s.c. b.i.d., 9 days, vs control) read?
A: significant reduction in tumor size

Q: And the “reduction of tumor weight relative to control” value (MDAY-D2 tumors; 500 μg/dose s.c. b.i.d., 9 days, day 10)?
A: approximately 70%

Q: And the tumor efficacy (MDAY-D2 tumors; murine solid tumor model at maximum tolerated dose, s.c. b.i.d. 9 days)?
A: significant tumor efficacy was demonstrated

Q: And the weight loss ([2]; doses up to and including 300 μg (600 μg/day) i.v., 9 day treatment and 14 day follow up)?
A: less than 15%

Q: And the “weight recovery following termination of treatment” value ([2]; i.v.)?
A: all animals regained their original weight

Q: And the “tolerability (doses up to and including)” value ([2]; per dose, i.v. b.i.d., 9 days, well tolerated)?
A: 300 µg

Q: What about the “spleen appearance upon necropsy” value ([3]; 600 μg/dose s.c., visual inspection) of the same compound?
A: enlarged

Q: And the maximum tolerated dose ([3]; b.i.d., s.c. for 9 days)?
A: 500 µg/day

Q: And the weight loss ([3]; doses up to and including 500 μg (1000 μg/day) s.c., 9 day treatment and 14 day follow up)?
A: less than 15%

Q: What about the “weight loss of one animal terminated” value ([3]; maximum dose of 600 μg s.c.) of the same compound?
A: 25%

Q: What about the “tolerability (doses up to and including)” value ([3]; per dose, s.c. b.i.d., 9 days, well tolerated) of the same compound?
A: 500 µg

Q: And the “weight recovery following termination of treatment” value ([3]; s.c.)?
A: all animals regained their original weight

Q: What about the “skin lesions at the injection site” value ([3]; s.c., higher doses) of the same compound?
A: some skin lesions were noted

Q: What about the weight loss ([3]; treatment protocol and dose level used to demonstrate tumor efficacy) of the same compound?
A: less than 15%

Q: What about the “plasma glucose levels following dosing” value ([4]; acute and b.i.d. dosing) of the same compound?
A: decreased following dosing

Q: What about the “plasma glucose level (normoglycemic range)” value ([4]; following dosing, non-diabetic animals) of the same compound?
A: 4 mM

Q: What about the “time for plasma glucose to return to pre-dosing levels” value ([4]; single and multiple b.i.d. dosing) of the same compound?
A: ≤ 1 h

Q: And the “dose-response of mean tumor weight” value ([5]; 600-1000 μg/day s.c., day 10)?
A: dose-response relationship

Q: What about the “correlation of tumor vanadium with tumor size and dose” value ([5]; atomic absorption spectroscopy, end of study) of the same compound?
A: strongly correlated

Q: And the myelosuppression ([5]; in vivo)?
A: no evidence of myelosuppression

Q: And the “plasma leukocyte count / immune response” value ([5]; in vivo)?
A: no significant changes in plasma leukocyte count

Q: What about the anti-tumor activity [5, 9] of the same compound?
A: significant dose-dependent anti-tumor activity

Q: And the “final tumor size reduction” value [5, 9]?
A: approximately 70%

Q: What about the maximum solubility [6] of the same compound?
A: 6000 µg/mL

Q: And the “tumor size reduction (caliper volumes)” value [7]?
A: significant reduction in tumor size

Q: What about the “reduction of tumor weight relative to control” value [7] of the same compound?
A: approximately 70%

Q: What about the tumor efficacy ([7]; human lung cancer xenograft at maximum tolerated dose, s.c. b.i.d. 9 days) of the same compound?
A: significant tumor efficacy was demonstrated

Q: Which results are given for [O]=[V]([O-])([O-])[O-] [orthovanadate]?
A: toxicity to drug resistant cell lines [8]: equally toxic to all the drug resistant cell lines; effect on non-proliferating cells (non-proliferating cells): did not affect the non-proliferating cells; cytotoxicity to synoviocytes (synoviocytes): cytotoxic to the cells; synoviocyte proliferation (synoviocytes): inhibited synoviocyte proliferation; effect on proliferating cells (proliferating cells): toxic to proliferating cells

Q: Which cytotoxicity to synoviocytes (synoviocytes) does the source give for O=S(=O)([O-])[O-].[O]=[V+2] [vanadyl sulphate] here?
A: cytotoxic to the cells

Q: What about the synoviocyte proliferation (synoviocytes) of the same compound?
A: inhibited synoviocyte proliferation

Q: With “μ-Oxobis[bis(2-ethyl-3-hydroxy-4-pyronato)oxovanadium(V)] [O[BEOV]2]” as the compound, how does the “tumor size reduction (caliper volumes)” value [7] read?
A: significant reduction in tumor size

Q: What about the “reduction of tumor weight relative to control” value [7] of the same compound?
A: approximately 70%
